Where two headings read alike, the source gives them in different places.
Columns and labels:
HDAC1 = biological target: T1, HDAC1 (Homo sapiens, UniProt Q13547); test: In vitro HDAC1 enzymatic activity inhibition (Lys-Ac-AMC substrate); type: biochemical
T1 construct: purchased BPS Bioscience
Procedure: Determining the inhibition capability to HDAC activity through the substrate method of fluorophore 4-amino-7-coumarin coupled Ac-peptide (Lys-Ac-AMC). HDAC1 protein is purchased from BPS Bioscience Company; the reaction buffer system is a modified tris(hydroxymethyl)aminomethane (TRIS) buffer (pH7.0). All small molecule compounds are prepared and dissolved by 100% DMSO (dimethyl sulfoxide). HDAC is prepared into the buffer as per certain concentration to be served as the enzyme solution; trypsin and the fluorophore 4-amino-7-coumarin coupled Ac-peptide substrate are prepared into the buffer as per certain concentration to be served as the substrate solution. Adding the compound into the reaction wells of the 384 well plate at the designed concentration, then adding 15 μL HDAC solution into the reaction wells (adding 15 μL blank buffer into the control well 0) for incubation under ambient temperature for 15 min; then adding 10 μL substrate solution to start reaction; during the reaction, the final concentration of HDAC1 protein is 6 nM, trypsin 0.05 μM and Ac-peptide 8 μM.
(§1) Calculating the value of IC50 as per the formula: Y=background data+(top data−background data)/(1+10^((Log IC50−X)*rate of curve))
Where, Y refers to the inhibition ratio (%) and X refers to the compound concentration. […]
Analyzing the result data with the software GraphPad Prism and calculating the value of IC50 as per the formula: Y=background data+(top data−background data)/(1+10^((Log IC50−X)*rate of curve)). Where, Y refers to the inhibition ratio (%) and X refers to the compound concentration.

[1] = test system: A2780s cells (ovarian cancer); test: Cell proliferation inhibition, A2780s (MTT); type: cell-based; conditions: Homo sapiens
Procedure: (§2) The tumor cell lines are purchased from American Type Culture Collection (ATCC) and cultivated to the status of logarithmic growth as per the cultural method recommended by ATCC. The cells in logarithmic phase are spread on a 96 well plate as per 2000-3000/well; as for anchorage-dependent cells, the compound should be added in the test wells at certain concentration for incubation for 96 h after cell adherence. Determining cell proliferation activities with method MTT for tumor cells representing solid tumor model and with method cck-8 for tumor cells representing hematologic tumor model, and analyzing the result data with the software GraphPad Prism.
(§3) Calculating the value of IC50 as per the formula: Y=background data+(top data−background data)/(1+10^((Log IC50−X)*rate of curve)). Where, Y refers to the inhibition ratio (%) and X refers to the compound concentration.

[2] = test system: hct116 cells (colon cancer); test: Cell proliferation inhibition, hct116 (MTT); type: cell-based; conditions: Homo sapiens, HCT-116
Procedure: as §2, §3

PI3Kα = biological target: T2, PI3Kα (Homo sapiens, UniProt P42336); test: PI3Kα activity inhibition (Kinase-Glo); type: biochemical
T2 construct: purchased Invitrogen PV4788
T2 sequence (P42336 whole entry, species assumed): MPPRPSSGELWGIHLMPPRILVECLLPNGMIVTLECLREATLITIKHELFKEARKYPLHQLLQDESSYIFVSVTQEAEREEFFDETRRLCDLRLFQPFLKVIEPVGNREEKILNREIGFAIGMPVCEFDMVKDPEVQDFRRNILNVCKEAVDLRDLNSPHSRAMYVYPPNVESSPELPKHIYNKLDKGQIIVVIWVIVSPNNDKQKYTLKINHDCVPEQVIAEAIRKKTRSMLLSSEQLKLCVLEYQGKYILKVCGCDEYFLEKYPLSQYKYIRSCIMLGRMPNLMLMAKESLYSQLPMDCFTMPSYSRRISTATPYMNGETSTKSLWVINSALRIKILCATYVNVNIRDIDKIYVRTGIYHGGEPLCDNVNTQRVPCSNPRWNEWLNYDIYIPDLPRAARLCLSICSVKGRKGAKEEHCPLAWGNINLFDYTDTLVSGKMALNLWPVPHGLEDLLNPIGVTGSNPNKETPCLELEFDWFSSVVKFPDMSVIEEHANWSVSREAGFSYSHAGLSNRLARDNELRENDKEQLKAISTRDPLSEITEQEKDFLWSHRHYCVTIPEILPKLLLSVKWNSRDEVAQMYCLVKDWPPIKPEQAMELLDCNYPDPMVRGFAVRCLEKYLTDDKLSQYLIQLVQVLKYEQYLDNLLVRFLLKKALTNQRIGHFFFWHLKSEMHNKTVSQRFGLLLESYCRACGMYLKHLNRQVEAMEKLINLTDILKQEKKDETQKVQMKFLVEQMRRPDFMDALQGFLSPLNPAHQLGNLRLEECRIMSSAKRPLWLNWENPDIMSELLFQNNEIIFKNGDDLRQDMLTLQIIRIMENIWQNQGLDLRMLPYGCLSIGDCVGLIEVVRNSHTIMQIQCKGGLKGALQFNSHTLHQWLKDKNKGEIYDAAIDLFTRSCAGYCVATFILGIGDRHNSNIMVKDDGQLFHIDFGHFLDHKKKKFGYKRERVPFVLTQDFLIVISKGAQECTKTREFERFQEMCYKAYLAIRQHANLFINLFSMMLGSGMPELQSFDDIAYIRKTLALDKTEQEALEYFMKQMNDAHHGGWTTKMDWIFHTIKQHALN
T2 sequence (P27986 whole entry partner, species assumed): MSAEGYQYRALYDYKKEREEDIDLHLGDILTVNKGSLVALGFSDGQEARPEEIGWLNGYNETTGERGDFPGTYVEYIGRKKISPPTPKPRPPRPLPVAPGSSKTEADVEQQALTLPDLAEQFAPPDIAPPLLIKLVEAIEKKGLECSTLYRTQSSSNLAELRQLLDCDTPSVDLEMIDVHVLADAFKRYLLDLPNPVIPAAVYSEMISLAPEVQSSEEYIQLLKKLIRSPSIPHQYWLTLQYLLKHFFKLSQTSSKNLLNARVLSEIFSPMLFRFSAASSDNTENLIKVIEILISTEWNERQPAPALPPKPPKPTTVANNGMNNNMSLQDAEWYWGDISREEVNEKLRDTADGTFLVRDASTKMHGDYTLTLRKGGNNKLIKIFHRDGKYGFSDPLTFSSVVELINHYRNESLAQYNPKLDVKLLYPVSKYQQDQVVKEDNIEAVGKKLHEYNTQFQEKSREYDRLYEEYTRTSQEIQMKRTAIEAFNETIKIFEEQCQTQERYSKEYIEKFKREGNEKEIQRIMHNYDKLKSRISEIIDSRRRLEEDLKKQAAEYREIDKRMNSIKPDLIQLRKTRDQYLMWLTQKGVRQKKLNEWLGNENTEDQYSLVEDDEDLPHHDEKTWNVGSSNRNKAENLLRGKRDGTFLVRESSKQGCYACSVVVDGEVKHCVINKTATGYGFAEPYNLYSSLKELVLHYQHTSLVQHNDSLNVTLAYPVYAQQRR
Procedure: Detecting the inhibition capability of the compound to PI3Kα and PI3Kδ activities with Kinase-Glo (purchased from Promege Company; Catalog No.: V3771). […] The reaction system also comprises substrates as PIP2 (4, 5-diphosphoinositide, purchased from Life Technologies Company) and ATP (triphosadenine, purchased from Sigma Company). The reaction buffer system comprises 50 mM HEPES (4-hydroxyethylpiperazine ethane sulfonic acid), 3 mM MgCl2, 1 mM EGTA (ethylene glycol bis(2-amino ethylether)quadrol), 100 mM NaCl, 0.03% CHAPS (3-[3-(cholamidopropyl)dimethylamino]-1-propanesulfonic acid), 2 mM DTT (dithiothreitol). The pH value of the reaction buffer is 7.5. […] Mixing the system evenly for incubation under ambient temperature (for 1 h in PI3Kα test and for 2 h in PI3Kδ test). After incubation, adding 10 μL Kinase-Glo which has been preheated to ambient temperature into each reaction well to terminate the reaction; shaking it in dark place for 15 min after it is mixed evenly, then measuring the fluorescence intensity with a microplate reader and analyzing the result data with the software GraphPad Prism.
as §1
Where, Y refers to the inhibition ratio (%) and X refers to the compound concentration.

[3] = test system: MV4-11 cells (acute myeloid leukemia); test: Cell proliferation inhibition, MV4-11 (cck-8); type: cell-based; conditions: Homo sapiens
Procedure: as §2, §3

[4] = Table 1, graded, read-out: HDAC1 IC50
[5] = read-out: inhibition value IC50 to the activity of HDAC1
[6] = 96 h incubation, read-out: Proliferation IC50, Ovarian cancer A2780s
[7] = read-out: IC50 to proliferation of A2780s cells
[8] = 96 h incubation, read-out: Proliferation IC50, Colon cancer hct116
[9] = read-out: IC50 to proliferation of hct116 cells
[10] = Table 1, graded, read-out: PI3Kα IC50
[11] = 96 h incubation, read-out: Proliferation IC50, Acute myeloid leukemia MV4-11
[12] = read-out: IC50 to proliferation of MV4-11 cells

T1 sequence (Q13547 whole entry, species assumed): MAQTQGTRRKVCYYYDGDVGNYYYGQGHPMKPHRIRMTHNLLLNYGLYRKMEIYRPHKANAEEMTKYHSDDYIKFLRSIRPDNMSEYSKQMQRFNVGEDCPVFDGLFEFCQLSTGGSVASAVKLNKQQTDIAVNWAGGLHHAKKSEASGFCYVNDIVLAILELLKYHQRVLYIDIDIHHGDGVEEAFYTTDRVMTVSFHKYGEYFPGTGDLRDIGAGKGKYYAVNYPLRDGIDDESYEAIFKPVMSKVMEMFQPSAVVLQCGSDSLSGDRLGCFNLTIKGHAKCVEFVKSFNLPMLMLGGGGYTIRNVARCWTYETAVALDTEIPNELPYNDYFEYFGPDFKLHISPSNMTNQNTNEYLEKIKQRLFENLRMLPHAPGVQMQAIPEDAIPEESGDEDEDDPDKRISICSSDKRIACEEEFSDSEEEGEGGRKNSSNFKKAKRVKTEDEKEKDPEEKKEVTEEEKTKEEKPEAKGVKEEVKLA

Row | SMILES | IC50 (HDAC1; [4]) [nM] | IC50 (HDAC1; [5]) [nM] | IC50 [1, 6] [nM] | IC50 [1, 7] [nM] | IC50 [2, 8] [nM] | IC50 [2, 9] [nM] | IC50 (PI3Kα; [10]) [nM] | IC50 [3, 11] [nM] | IC50 [3, 12] [nM] | IC50 (PI3Kα; read-out: inhibition value IC50 to the activity of PI3Kα) [nM]
1 | CN(Cc1nc2c(N3CCOCC3)nc(-c3ccc[nH]3)nc2n1C)c1ncc(C(=O)NO)cn1 [CLJ-24, 2-(((2-(1H-2-pyrrolyl)-9-methyl-6-morpholine-9H-purine-8-yl))methyl(methyl)amino)-N-hydroxyl pyrimidine-5-formamide] | < 1 | < 1 | 0.1 to 10 | 0.1 to 10 | 0.1 to 10 | 0.1 to 10 | 1000 to 10000 | 0.1 to 10 | 0.1 to 10 | 
2 | CCNc1ccc(-c2nc(N3CCOCC3)c3nc(CN(C)c4ncc(C(=O)NO)cn4)n(C)c3n2)cc1 [CLJ-48] | < 100 |  | 0.1 to 10 | 0.1 to 10 | 0.1 to 10 | 0.1 to 10 | > 10000 | 0.1 to 10 | 0.1 to 10 | 
3 | Cc1cscc1-c1nc(N2CCOCC2)c2nc(CN(C)c3ncc(C(=O)NO)cn3)n(C)c2n1 [CLJ-23] | < 100 |  | 0.1 to 10 | 0.1 to 10 | 0.1 to 10 | 0.1 to 10 | > 10000 | 0.1 to 10 | 0.1 to 10 | 
4 | Cc1ccsc1-c1nc(N2CCOCC2)c2nc(CN(C)c3ncc(C(=O)NO)cn3)n(C)c2n1 [CLJ-19, 2-(((2-(3-methyl-2-thienyl)-9-methyl-6-morpholine-9H-purine-8-yl))methyl(methyl)amino)-N-hydroxyl pyrimidine-5-formamide] | < 100 |  | 10 to 100 |  | 0.1 to 10 |  | > 10000 | 0.1 to 10 |  | 
5 | CN(Cc1nc2c(N3CCOCC3)nc(-c3ccc(Cl)c(C(F)(F)F)c3)nc2n1C)c1ncc(C(=O)NO)cn1 [CLJ-54, 2-(((2-(-4-chlorine-3-trifluoromethylphenyl)-9-methyl-6-morpholine-9H-purine-8-yl))methyl(methyl)amino)-N-hydroxyl pyrimidine-5-formamide] | < 100 |  | 100 to 1000 |  | 100 to 1000 |  | > 10000 | 100 to 1000 |  | 
6 | CC(C)=CCN(CC=C(C)C)c1ccc(-c2nc(N3CCOCC3)c3nc(CN(C)c4ncc(C(=O)NO)cn4)n(C)c3n2)cc1 [CLJ-49] | < 100 |  | 10 to 100 |  | 100 to 1000 |  | > 10000 | 10 to 100 |  | 
7 | CCn1c(CN(C)c2ncc(C(=O)NO)cn2)nc2c(N3CCOCC3)nc(-c3ccc(OC)nc3)nc21 [CLJ-2, 2-(((9-ethyl-2(6-methoxyl 3-pyridyl)-6-morpholino-9H-purine-8-yl))methyl(methyl)amino)-N-hydroxyl pyrimidine-5-formamide] | < 100 |  | 100 to 1000 |  | 100 to 1000 |  | 1000 to 10000 | 100 to 1000 |  | 
8 | CN(Cc1nc2c(N3CCOCC3)nc(-c3cccc(O)c3)nc2n1C)c1ncc(C(=O)NO)cn1 [CLJ-27, 2-(((2-(3-hydroxyphenyl)-9-methyl-6-morpholine-9H-purine-8-yl))methyl(methyl)amino)-N-hydroxyl pyrimidine-5-formamide] | < 1 | < 1 | 10 to 100 |  | 10 to 100 |  | > 10000 | 0.1 to 10 |  | 
9 | CN(Cc1nc2c(N3CCOCC3)nc(-c3ccc4c(c3)OCO4)nc2n1C)c1ncc(C(=O)NO)cn1 [CLJ-36, 2-(((2-(benzo[d][1,3]dioxole-5-yl)-9-methyl-6-morpholine-9H-purine-8-yl))methyl(methyl)amino)-N-hydroxyl pyrimidine-5-formamide] | < 1 | < 1 | 0.1 to 10 | 0.1 to 10 | 0.1 to 10 | 0.1 to 10 | > 10000 | 0.1 to 10 | 0.1 to 10 | 
10 | CN(Cc1nc2c(N3CCOCC3)nc(-c3ccc(S(C)(=O)=O)cc3)nc2n1C)c1ncc(C(=O)NO)cn1 [CLJ-57, 2-(((2-(4-methylsulphonylphenyl)-9-methyl-6-morpholine-9H-purine-8-yl))methyl(methyl)amino)-N-hydroxyl pyrimidine-5-formamide] | < 1 | < 1 | 0.1 to 10 |  | 10 to 100 |  | > 10000 | 0.1 to 10 |  | 
11 | CN(Cc1nc2c(N3CCOCC3)nc(-c3ccsc3)nc2n1C)c1ncc(C(=O)NO)cn1 [CLJ-22, 2-(((2-(3-thienyl)-9-methyl-6-morpholine-9H-purine-8-yl))methyl(methyl)amino)-N-hydroxyl pyrimidine-5-formamide] | < 1 | < 1 | 0.1 to 10 | 0.1 to 10 | 0.1 to 10 | 0.1 to 10 | > 10000 | 0.1 to 10 | 0.1 to 10 | 
12 | CN(Cc1nc2c(N3CCOCC3)nc(-c3cncnc3)nc2n1C)c1ncc(C(=O)NO)cn1 [CLJ-10, 2-(((2-(pyrimidine-5-yl)-9-methyl-6-morpholine-9H-purine-8-yl))methyl(methyl)amino)-N-hydroxyl pyrimidine-5-formamide] | < 100 |  | 100 to 1000 |  | 10 to 100 |  | < 100 | 10 to 100 |  | < 100
13 | CCCCc1ccc(-c2nc(N3CCOCC3)c3nc(CN(C)c4ncc(C(=O)NO)cn4)n(C)c3n2)s1 [CLJ-21, 2-(((2-(5-n-butyl-2-thienyl)-9-methyl-6-morpholine-9H-purine-8-yl))methyl(methyl)amino)-N-hydroxyl pyrimidine-5-formamide] | < 100 |  | 0.1 to 10 | 0.1 to 10 | 0.1 to 10 | 0.1 to 10 | > 10000 | 0.1 to 10 | 0.1 to 10 | 
14 | CCCN(Cc1nc2c(N3CCOCC3)nc(-c3ccc4[nH]ncc4c3)nc2n1C)c1ncc(C(=O)NO)cn1 [CLJ-16, N-hydroxy-2-(((2-(1H-indazole-5-yl)-9-methyl-6-morpholine-9H-purine-8-yl))methyl(propyl)amino)pyrimidine-5-formamide] | 100 to 1000 |  | > 1000 |  | > 1000 |  | > 10000 | > 1000 |  | 
15 | COc1ccc(-c2nc(N3CCOCC3)c3nc(CN(C)c4ncc(C(=O)NO)cn4)n(C4CCCC4)c3n2)cc1 [CLJ-32, 2-(((9-cyclopentyl-2(4-methoxyphenyl)-6-morpholine-9H-purine-8-yl)methyl)(methyl)amino)-N-hydroxyl pyrimidine-5-formamide] | 100 to 1000 |  | > 1000 |  | > 1000 |  | > 10000 | > 1000 |  | 
16 | CCCCN(Cc1nc2c(N3CCOCC3)nc(-c3ccc4[nH]ncc4c3)nc2n1C)c1ncc(C(=O)NO)cn1 [CLJ-17, N-hydroxy-2-(((2-(1H-indazole-5-yl)-9-methyl-6-morpholine-9H-purine-8-yl))methyl(butyl)amino)pyrimidine-5-formamide] | 100 to 1000 |  | > 1000 |  | > 1000 |  | > 10000 | > 1000 |  | 
17 | CN(Cc1nc2c(N3CCOCC3)nc(Cl)nc2n1C)c1ncc(C(=O)NO)cn1 [CLJ-68] | < 100 |  | 10 to 100 |  | 10 to 100 |  | > 10000 | 10 to 100 |  | 

— patent publication US10227347B2, “Purinyl-N-hydroxyl pyrimidine formamide derivative, preparation methods and uses thereof” (Guizhou Bailing Group Pharmaceutical CO., LTD., priority 2015, dated 2019)
